Like-named read-outs stand apart in the source and are kept apart here.
Legend:
Cqui\Orco + Cqui\Or10 [1] = molecular target: T1, Cqui\Orco + Cqui\Or10 (Culex quinquefasciatus, UniProt D5LMR7+Q309I4); set-up: method as in PMID 20623327; settings: read-out: EC50 for activation of Cqui\Orco+Cqui\Or10 by 3-methylindole; cited from earlier work
Cqui\Orco + Cqui\Or10 [2] = molecular target: T1, Cqui\Orco + Cqui\Or10; assay: Activation of Cqui\Orco + Cqui\Or10 in Xenopus oocytes, two-electrode voltage clamp; assay type: cell-based; settings: for Emax at 100 µM: 100 µM compound, mean ± SEM, n=3-8, read-out: Response amplitude as percentage of response to 100 µM OLC3, Cqui\Orco + Cqui\Or10
Description: (§1) Oocytes were surgically removed from mature Xenopus laevis frogs. Follicle cells were removed by treatment with Collagenase B (Boehringer Mannhem) for 2 hours at room temperature. Capped cRNA encoding each DmOR subunit was generated using mMessage mMachine kits (Ambion). For heteromeric ORs, 25 ng of cRNA encoding each OR subunit was injected into Stage V-VI Xenopus oocytes. For expression of Orco alone, 50 ng of cRNA was injected. Oocytes were incubated at 18°C in Barth’s saline (in mM: 88 NaCl, 1 KCl, 2.4 NaHCO3, 0.3 CaNO3, 0.41 CaCl2, 0.82 MgSO4, 15 HEPES, pH 7.6, and 150 µg/ml ceftazidime) for 2–5 days prior to electrophysiological recording.
(§2) Odorant and Orco ligand induced currents were recorded under two-electrode voltage clamp in Xenopus laevis oocytes expressing ORs, using an automated parallel electrophysiology system (OpusExpress 6000A; Molecular Devices). Oocytes were perfused with ND96 (in mM: 96 NaCl, 2 KCl, 1 CaCl2, 1 MgCl2, 5 HEPES, pH 7.5). Odorant stock solutions (0.5 or 1 M) and Orco ligand stock solutions (100 mM) were prepared in DMSO and diluted in ND96. Unless otherwise noted, applications were for 60 sec at a flow rate of 1.0 ml/min, with extensive washing in ND96 (9 or 20 min at 4.6 ml/min) between applications. Micropipettes were filled with 3 M KCl and had resistances of 0.2−2.0 MΩ. The holding potential was −70 mV. Current responses, filtered (4-pole, Bessel, low pass) at 20 Hz (−3 db) and sampled at 100 Hz, were captured and stored using OpusXpress 1.1 software (Molecular Devices).
(§3) Initial analysis of electrophysiological data was done using Clampfit 9.1 software (Molecular Devices). Curve fitting and statistical analyses were done using Prism 5 (Graphpad). Concentration-response data were fit to the equation: I = Imax/(1+(EC50/X)^n) where I represents the current response at a given concentration of odorant, X; Imax is the maximal response; EC50 is the concentration of agonist yielding a half maximal response; n is the apparent Hill coefficient. Concentration-inhibition data were fit to the equation: I = Imax/(1+(X/IC50)^n) where I represents the current response at a given concentration of inhibitor, X; Imax is the maximal response in the absence of inhibitor; IC50 is the concentration of inhibitor present that still allows a half maximal response from odorant; n is the apparent Hill coefficient. Statistical significance was assessed using a two-tailed unpaired t test, an F test, or a one-way analysis of variance followed by the Bonferroni’s post-test, as appropriate.

Dmel\Orco = molecular target: T2, Dmel\Orco (Drosophila melanogaster, UniProt Q9VNB5); assay: Agonist activation of homomeric Dmel\Orco in Xenopus oocytes, two-electrode voltage clamp; assay type: cell-based; settings: for EC50: concentration-response, responses normalized to 30 µM OLC3, saturation not obtained for OLC3 and VUAA1; for Emax at 100 µM: read-out: Response amplitude as percentage of response to 100 µM OLC3, Dmel\Orco
T2 construct: expressed in transfected cells; host or cells: Xenopus laevis oocytes (cRNA injection, pGEMHE)
T2 sequence (Q9VNB5 1-486): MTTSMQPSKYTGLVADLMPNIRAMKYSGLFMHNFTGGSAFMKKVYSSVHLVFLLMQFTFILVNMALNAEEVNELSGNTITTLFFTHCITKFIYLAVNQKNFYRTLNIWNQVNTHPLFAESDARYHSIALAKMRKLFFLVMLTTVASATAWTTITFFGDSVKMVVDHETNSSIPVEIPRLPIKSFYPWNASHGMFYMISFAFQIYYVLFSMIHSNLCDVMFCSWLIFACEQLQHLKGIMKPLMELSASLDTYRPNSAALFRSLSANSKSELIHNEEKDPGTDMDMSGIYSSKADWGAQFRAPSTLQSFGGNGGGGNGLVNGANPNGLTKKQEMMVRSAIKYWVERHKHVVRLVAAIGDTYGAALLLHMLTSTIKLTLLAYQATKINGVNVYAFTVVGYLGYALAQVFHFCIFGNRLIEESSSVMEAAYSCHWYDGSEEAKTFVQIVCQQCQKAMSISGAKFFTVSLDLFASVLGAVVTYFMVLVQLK
Description: as §1, §2, §3

Dmel\Orco + Dmel\Or35a = molecular target: T3, Dmel\Orco + Dmel\Or35a (Drosophila melanogaster, UniProt Q9VNB5); assay: Agonist activation of Dmel\Orco + Dmel\Or35a in Xenopus oocytes, two-electrode voltage clamp; assay type: cell-based; settings: for EC50: concentration-response, responses normalized to 30 µM OLC3; for Emax at 100 µM: read-out: Response amplitude as percentage of response to 100 µM OLC3, Dmel\Orco + Dmel\Or35a
T3 construct: expressed in transfected cells; host or cells: Xenopus laevis oocytes (cRNA injection, pGEMHE)
T3 sequence (Q9VNB5 1-486): T2 sequence (Q9VNB5 1-486)
T3 sequence (Q9V3Q2 1-409 partner): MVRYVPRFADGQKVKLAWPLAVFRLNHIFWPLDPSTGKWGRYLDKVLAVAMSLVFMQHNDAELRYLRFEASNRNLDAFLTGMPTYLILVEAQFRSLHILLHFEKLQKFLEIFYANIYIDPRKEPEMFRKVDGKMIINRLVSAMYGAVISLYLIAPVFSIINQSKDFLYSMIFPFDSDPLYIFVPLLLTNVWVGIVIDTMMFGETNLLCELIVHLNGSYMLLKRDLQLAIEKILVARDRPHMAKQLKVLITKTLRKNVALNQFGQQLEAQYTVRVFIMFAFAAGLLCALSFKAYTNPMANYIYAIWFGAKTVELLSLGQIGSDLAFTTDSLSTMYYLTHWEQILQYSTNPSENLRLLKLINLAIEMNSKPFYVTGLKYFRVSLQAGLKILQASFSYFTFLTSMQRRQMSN
Description: as §1, §2, §3

Onub\Orco + Onub\Or1 = assay: Agonist activation of Onub\Orco + Onub\Or1 in Xenopus oocytes, two-electrode voltage clamp; assay type: cell-based, Ostrinia nubilalis; settings: 100 µM compound; mean ± SEM, n=3-8
[3] = tested on: sham (water) injected oocytes; assay: Response of sham (water) injected oocytes to Orco ligands; assay type: cell-based, Xenopus laevis; settings: 100 µM, 60 sec application
Description: as §1, §2

Cqui\Orco = assay: Agonist activation of homomeric Cqui\Orco in Xenopus oocytes, two-electrode voltage clamp; assay type: cell-based, Culex quinquefasciatus; settings: 100 µM compound; mean ± SEM, n=3-8
[4] = Solubility in recording solution (observation); assay type: physicochemical; settings: aqueous recording solution, higher concentrations (OLC2: above 100 µM)
Description: as §2

T1 sequence (D5LMR7 entry or part of it): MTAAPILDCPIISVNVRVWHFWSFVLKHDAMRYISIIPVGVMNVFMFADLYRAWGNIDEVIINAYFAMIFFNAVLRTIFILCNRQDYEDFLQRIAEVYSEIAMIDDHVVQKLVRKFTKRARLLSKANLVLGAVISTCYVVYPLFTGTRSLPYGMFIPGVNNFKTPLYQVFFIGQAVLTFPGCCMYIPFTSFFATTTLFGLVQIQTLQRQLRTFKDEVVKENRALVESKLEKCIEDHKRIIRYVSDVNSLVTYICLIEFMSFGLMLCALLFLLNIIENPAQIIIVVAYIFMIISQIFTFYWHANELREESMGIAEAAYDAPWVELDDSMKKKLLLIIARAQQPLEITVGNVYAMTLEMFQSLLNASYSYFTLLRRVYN
T1 sequence (Q309I4 entry or part of it): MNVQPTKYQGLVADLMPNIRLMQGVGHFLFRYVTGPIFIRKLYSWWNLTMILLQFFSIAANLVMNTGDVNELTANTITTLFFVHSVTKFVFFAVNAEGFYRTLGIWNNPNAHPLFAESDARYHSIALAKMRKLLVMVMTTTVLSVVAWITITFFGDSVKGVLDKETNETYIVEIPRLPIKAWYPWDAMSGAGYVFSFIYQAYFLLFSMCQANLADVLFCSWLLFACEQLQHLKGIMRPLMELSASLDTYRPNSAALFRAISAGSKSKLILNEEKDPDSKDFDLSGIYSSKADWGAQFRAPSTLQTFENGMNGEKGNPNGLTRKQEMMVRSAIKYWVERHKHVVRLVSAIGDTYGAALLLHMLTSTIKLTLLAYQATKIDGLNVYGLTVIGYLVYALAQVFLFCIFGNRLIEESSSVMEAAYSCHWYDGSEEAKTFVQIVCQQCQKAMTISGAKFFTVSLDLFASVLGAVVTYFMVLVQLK

Structure (SMILES) | EC50 (Cqui\Orco + Cqui\Or10 [1]) | EC50 (Cqui\Orco + Cqui\Or10 [2]; absence of OLC15, read-out: EC50 for 3-MI activation of Cqui\Orco + Cqui\Or10) | EC50 (Cqui\Orco + Cqui\Or10 [2]; in presence of 3 µM OLC15, read-out: EC50 for 3-MI activation of Cqui\Orco + Cqui\Or10 in presence of OLC15) | EC50 (Dmel\Orco) | Emax at 100 µM (Dmel\Orco) | EC50 (Dmel\Orco + Dmel\Or35a) | Emax at 100 µM (Dmel\Orco + Dmel\Or35a) | Response amplitude as percentage of response to 100 µM OLC3, Onub\Orco + Onub\Or1 (Onub\Orco + Onub\Or1) | Response of sham (water) injected oocytes [3] | Response amplitude as percentage of response to 100 µM OLC3, Cqui\Orco (Cqui\Orco) | Solubility [4] | Emax at 100 µM (Cqui\Orco + Cqui\Or10 [2])
Cc1c[nH]c2ccccc12 [3-methylindole, reference compound] | 0.09 ± 0.017 µM | 0.313 ± 0.103 µM | 0.275 ± 0.041 µM | – | – | – | – | – | – | – | – | –
CCc1ccc(NC(=O)CSc2nnc(-c3ccncc3)n2CC)cc1 [OLC3] | – | – | – | 346 ± 126 µM | 100% | 56 ± 8 µM | 100% | 100% | No responses | 100% | not fully soluble at higher concentrations | 100%
CCn1c(SCC(=O)Nc2ccc(C(C)C)cc2)nnc1-c1ccncc1 [OLC12] | – | – | – | 35 ± 3 µM | 318 ± 12% | 18 ± 3 µM | 300 ± 41% | 306 ± 33% | No responses | 636 ± 78% | – | 289 ± 41%
CCc1ccc(NC(=O)CSc2nnc(-c3cccnc3)n2CC)cc1 [VUAA1, reference compound] | – | – | – | 190 ± 30 µM | 24 ± 7% | 57 ± 13 µM | 50 ± 9% | 60 ± 6% | No responses | 18 ± 8% | not fully soluble at higher concentrations | 75 ± 3%

Source: article PMC3348135, “Identification of New Agonists and Antagonists of the Insect Odorant Receptor Co-Receptor Subunit” (PLoS ONE, 2012)
